From US9040725B2, “Benzocycloheptane and benzoxepine derivatives” (Janssen Pharmaceutica NV, priority 2008, dated 2015)
Where a name gives a salt, the structure may show the parent alone. Read-outs that look alike come from different tables or passages of the source.

Columns and labels:
GHS1A-receptor = target: T1, GHS1A-receptor (Homo sapiens, UniProt Q92847); experiment: Ghrelin-agonism in HEK293 cells (intracellular calcium, FLIPR); assay type: cell-based; settings: HEK293 cells permanently transfected with GHS1A-receptor, calcium fluorescence (fluo-4 or Kit-3), EC50 in M, read-out: pEC50 (converted)
T1 construct: expressed in transfected cells; host or cells: HEK293
T1 sequence (Q92847 whole entry): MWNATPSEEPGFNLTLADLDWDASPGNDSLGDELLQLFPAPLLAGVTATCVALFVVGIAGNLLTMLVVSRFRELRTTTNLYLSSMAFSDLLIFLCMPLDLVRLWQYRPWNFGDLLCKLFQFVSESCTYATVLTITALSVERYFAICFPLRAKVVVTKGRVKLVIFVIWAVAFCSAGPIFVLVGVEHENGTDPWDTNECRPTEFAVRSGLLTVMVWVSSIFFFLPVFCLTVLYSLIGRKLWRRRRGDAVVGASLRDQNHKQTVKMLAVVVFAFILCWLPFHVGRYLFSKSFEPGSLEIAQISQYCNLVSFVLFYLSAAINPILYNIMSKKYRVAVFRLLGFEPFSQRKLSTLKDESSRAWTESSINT
Experimental: One day before the experiment, HEK293 cells, permanently transfected with the gene sequence for expression of the GHS1A-receptor, were seeded in poly-D-Lysine coated 96-well plates with clear bottom, and allowed to grow to […] of confluence on the next day.
Then, cells were incubated with the calcium-sensitive intracellular fluorescent probe fluo-4 or Kit-3 for 1 h at 37° C. Fluorescence representing free intracellular calcium in the cells was measured in a FLIPR-system (excitation at 488 nm, emission>520 nm). Test compounds were added to each well at the desired concentration and the fluorescence signal was simultaneously recorded in all wells. Release of intracellular calcium triggered by activation of the receptors upon addition of the test compound was measured as the fluorescence emitted from the complex of calcium and the fluorescent probe. The drug effect on fluorescence intensity was expressed relative to the maximal fluorescence intensity measured in cells exposed to the calcium-ionophore ionomycin.

NMRI-mice = experiment: Acceleration of gastric emptying and small intestinal propulsion in NMRI-mice; assay type: in vivo; settings: Mus musculus, sc, lowest active dose, subcutaneous, 30 min before phenol red test meal
Experimental: Male NMRI-mice weighing around 25 gram were fasted for 20 h and had free access to drinking water. Test compounds were administered to the animals by subcutaneous route 30 min before they were given a test meal by oral gavage. The test meal consisted of 0.3 ml of a chocolate nutridrink solution (1.0 kcal/ml) containing phenol red marker (5 mg/ml). Fifteen min after administration of the meal, the mice were sacrificed by CO2 gas inhalation. The phenol red content remaining in the stomach (extracted from the stomach with NaOH) was determined at 557 nm in a spectrophotometer and expressed as extinction units. Small intestinal propulsion was determined as the distance traveled by the phenol red marker through the intestine and expressed as a percentage of total small intestinal length (from the pylorus to the ileo-cecal junction).
The lowest dose that was active for each parameter was noted as the lowest active dose (LAD). Table 12 discloses LAD values.

[1] = active when >60% of animals had phenol red front beyond 85% of small intestinal length, read-out: LAD (mg/kg) Small intestinal propulsion
[2] = stomach content 15 min after meal, active when >60% of animals below 0.9 extinction units, read-out: LAD (mg/kg) Gastric emptying

Structure (SMILES) | EC50 (GHS1A-receptor) [nM] | minimal effective dose (NMRI-mice; [1]) [mg/kg] | minimal effective dose (NMRI-mice; [2]) [mg/kg]
COc1cc(C2CCOc3ccccc3C2(O)CCCN(C)C)ccc1Cl (racemic) [Compound 97] | 25.1 | 2.5 | 2.5
CCN(CC)CCCC1(O)c2ccccc2CCCC1c1ccc(Cl)cc1 (racemic) [Compound 46] | 200 | 10 | 10
COc1cc(C2CCCc3ccccc3C2(O)CCCN(C)C)ccc1Cl (racemic) [Compound 72] | 10 | > 10 | > 10
CN(C)CCCC1(O)c2ccccc2CCCC1c1ccccc1 (racemic) [Compound 106] | 63.1 | 10 | 10
CCN(CC)CCCC1(O)c2ccccc2CCCC1c1ccc(Cl)c(OC)c1 (racemic) [Compound 74] | 5.01 | > 40 | > 40
COCCN(C)CCCC1(O)c2ccccc2CCCC1c1ccc(C)cc1 (racemic) [Compound 30] | 79.4 | > 10 | 10
CCN(CC)CCCC1(O)c2ccccc2CCCC1c1ccc(F)cc1F (racemic) [Compound 57] | 31.6 | 10 | 10
Cc1ccc([C@H]2CCCc3ccccc3[C@]2(O)CCCN(C)C)cn1 (racemic) [Compound 16, (±)cis-5-(3-Dimethylamino-propyl)-6-(6-methyl-pyridin-3-yl)-6,7,8,9-tetrahydro-5H-benzocyclohepten-5-ol hydrochloride] | 251 | > 10 | 10
COc1cc(C2CCCc3ccccc3C2(O)CCCN2CCC(O)C2)ccc1Cl (racemic) [Compound 73] | 316 | 10 | > 10
COc1ccc(C2CCOc3ccccc3C2(O)CCCN(C)C)cn1 (racemic) [Compound 102] | 7940 | > 10 | > 10
CN(C)CCCC1(O)c2ccccc2OCCC1c1ccc(F)c(F)c1 (racemic) [Compound 95] | 50.1 | > 10 | > 10
CC(C)NCCCC1(O)c2ccccc2CCCC1c1cncc(Cl)c1 (racemic) [Compound 82] | 251 | > 10 | > 10
COCCN(C)CCCC1(O)c2ccccc2CCCC1c1ccc(F)cc1 (racemic) [Compound 54] | 63.1 | > 40 | > 40
CN(C)CCCC1(O)c2ccccc2CCCC1c1ccccc1 (single isomer, unassigned) [Compound 105] | 15.8 | > 10 | 10
CCN(CC)CCCC1(O)c2ccccc2CCCC1c1ccc2c(c1)OCO2 (racemic) [Compound 89] | 39.8 | > 10 | > 10
CN(C)CCCC1(O)c2ccccc2CCCC1c1ccc2c(c1)OCO2 (racemic) [Compound 88] | 63.1 | > 10 | > 10
CNCCCC1(O)c2ccccc2CCCC1c1ccccc1 (racemic) [Compound 19] | 200 | > 10 | > 10
COc1cncc(C2CCCc3ccccc3C2(O)CCCN(C)C)c1 (racemic) [Compound 83] | 631 | > 10 | > 10
COCCN(C)CCCC1(O)c2ccccc2CCCC1c1cccc(Cl)c1 (racemic) [Compound 42] | 50.1 | > 10 | > 10
COCCN(C)CCC[C@@]1(O)c2ccccc2CCC[C@@H]1c1ccc(Cl)cc1 (relative stereo) [Compound 13] | 251 | > 10 | 10
CN(C)CCCC1(O)c2ccccc2CCCC1c1cncc(Cl)c1 (racemic) [Compound 81] | 50.1 | > 10 | > 10
